Source: US5136076A, “Process for the preparation of amino acid-derived enatiomeric compounds” (Societe Civile Bioprojet, priority 1987, dated 1992)

Columns and labels:
renal enkephalinase = test: Inhibition of linking between Acetorphan and renal enkephalinase after oral administration (Table 2 (a)); type: in vivo, mouse; settings: kidney, 0.3 mg/kg oral, 90 minutes after administration
Text: (§1) Dosage of `enkephalinase` activity and angiotensin convertase (ACE) activity with determination of the effect of inhibitors both in vitro and on mouses in vivo: inhibition of the same enzymes and protection of natriuretic auricular factor.
(§2) ENKEPHALINASE INHIBITING ACTIVITIES AND PROTECTION OF NATRIURETIC AURICULAR FACTOR (ANF) IN THE KIDNEY IN VIVO
(a) Inhibition of the linking between […] Acetorphan and renal
enkephalinase measured according to S. de la Baume, M. Tuong, F. Brion, J
C. Schwartz (J.P.E.T. 1988, forthcoming) 90 minutes after oral
administration of compounds 1 or 2 at a dose of 0.3 mg/kg.

mouses = test: Analgesic activity, plate jump test at 55° C.; type: in vivo, mouse
Procedure: III. ANALGESIC ACTIVITIES MEASURED ON PLATE JUMP TEST AT 55° C. AFTER ADMINISTRATION TO MOUSES.
(Eddy and Leimbach, J. Pharmacol. Exp. Ther. 1953, 107 385).

[1] = test system: natriuretic auricular factor (ANF) in the kidney; test: Protection of natriuretic auricular factor (ANF) in the kidney in vivo (Table 2 (b)); design: species or system mouse; settings: for Increase of ANF (%): renal 125I ANF 2 min after i.v. administration of 10^6 cpm, compound 0.3 mg/kg orally 90 min before, 0.3 mg/kg
Procedure: as §1, §2
(b) Increase in the renal level of ^125 I ANF, as measured 2 min afte
i.v. administration of 10^6 cpm to mouses having been given compounds
1 or 2, 90 min before (0.3 mg/kg, orally).
Compound 2 (0.3 mg/kg, p.o.) induces in the same test an increase of renal ^125 I ANF of 75±7% after 30 min and […] after 180 min.

dogs = test: Colic motive activity (motive index) after standard meal; type: in vivo, dog
Text: Motive index (as evaluated with a restraint gauge).
Influence of previous intravenous (i.v.) or oral (p.o.) administration of
compound or the variations of the colic motive index after standard meal

[2] = target: T1, ACE (angiotensin convertase) (Mus musculus, UniProt P09470); test: ACE inhibition in vitro on mouse striatum membranes (Table 1 (c)); type: biochemical
T1 construct: Activities measured on mouse striatum membranes in vitro or 30; from tissue; host or cells: mouse striatum (membranes)
T1 sequence (P09470 35-1312): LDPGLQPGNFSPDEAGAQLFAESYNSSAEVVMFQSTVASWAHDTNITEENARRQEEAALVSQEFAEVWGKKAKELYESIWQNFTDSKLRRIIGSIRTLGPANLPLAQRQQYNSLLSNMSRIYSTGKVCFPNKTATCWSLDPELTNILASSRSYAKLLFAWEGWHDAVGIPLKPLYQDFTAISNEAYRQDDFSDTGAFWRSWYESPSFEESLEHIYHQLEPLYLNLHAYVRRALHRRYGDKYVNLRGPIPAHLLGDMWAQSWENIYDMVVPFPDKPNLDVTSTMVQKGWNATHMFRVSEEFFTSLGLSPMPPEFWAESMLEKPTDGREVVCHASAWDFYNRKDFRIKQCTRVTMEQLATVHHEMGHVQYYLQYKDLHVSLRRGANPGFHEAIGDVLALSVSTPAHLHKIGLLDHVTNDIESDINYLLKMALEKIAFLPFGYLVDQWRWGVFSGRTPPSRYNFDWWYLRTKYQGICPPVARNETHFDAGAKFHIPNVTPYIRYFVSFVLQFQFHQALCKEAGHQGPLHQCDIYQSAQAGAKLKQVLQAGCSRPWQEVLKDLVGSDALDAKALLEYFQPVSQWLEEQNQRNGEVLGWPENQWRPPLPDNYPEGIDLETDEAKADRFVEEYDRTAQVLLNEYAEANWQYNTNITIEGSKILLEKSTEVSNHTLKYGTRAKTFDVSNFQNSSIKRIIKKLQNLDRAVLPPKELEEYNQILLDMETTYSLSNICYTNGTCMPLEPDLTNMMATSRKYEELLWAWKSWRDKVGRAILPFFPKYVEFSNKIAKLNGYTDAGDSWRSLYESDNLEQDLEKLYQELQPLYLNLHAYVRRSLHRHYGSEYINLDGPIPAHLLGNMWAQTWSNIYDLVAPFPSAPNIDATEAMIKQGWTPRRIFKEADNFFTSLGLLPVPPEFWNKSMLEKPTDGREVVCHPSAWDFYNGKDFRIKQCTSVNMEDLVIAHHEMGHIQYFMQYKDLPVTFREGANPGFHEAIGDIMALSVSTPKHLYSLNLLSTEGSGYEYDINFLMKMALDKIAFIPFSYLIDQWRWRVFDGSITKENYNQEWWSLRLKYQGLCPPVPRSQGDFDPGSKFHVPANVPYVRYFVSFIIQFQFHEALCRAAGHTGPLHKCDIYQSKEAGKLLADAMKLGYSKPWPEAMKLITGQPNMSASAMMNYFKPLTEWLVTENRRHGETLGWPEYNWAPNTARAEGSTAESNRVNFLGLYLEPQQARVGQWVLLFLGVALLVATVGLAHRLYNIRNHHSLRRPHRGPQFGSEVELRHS
Text: as §1
ENKEPHALINASE AND ACE INHIBITING ACTIVITIES IN IN VITRO AND IN VIVO STRIATUM
(c) and (d)Activities measured on mouse striatum membranes in vitro or 30
mn after i.v. administration according to Yang and Neff, J. Neurochem, […]

Structure (SMILES) | Inhibition of enkephalinase (%) (renal enkephalinase) | Reaction time (mouses; 5 mg/kg i.v., 20' before test) | Reaction time (mouses; 30 mg/kg oral, 1 h before test) | Reaction time (mouses; 100 mg/kg oral, 1 h before test) | Increase of ANF (%) [1] | Motive index, After meal (0/+2 h) (dogs; 1 mg/kg i.v.) | Motive index, After meal (+2/10 h) (dogs; 1 mg/kg i.v.) | Motive index, Before meal (-2/0) (dogs; 1 mg/kg i.v.) | Motive index, After meal (0/+2 h) (dogs; 10 mg/kg p.o.) | Motive index, After meal (+2/10 h) (dogs; 10 mg/kg p.o.) | Motive index, Before meal (-2/0) (dogs; 10 mg/kg p.o.) | colic motricity as an answer to the intake of food (dogs; dogs, postprandial periods) | IC50 [2] | increase of renal 125I ANF ([1]; 0.3 mg/kg p.o., after 30 min) | Motive index, After meal (0/+2 h) (dogs; 5 mg/kg p.o.) | Motive index, After meal (+2/10 h) (dogs; 5 mg/kg p.o.) | Motive index, Before meal (-2/0) (dogs; 5 mg/kg p.o.)
CC(=O)SCC(Cc1ccccc1)C(=O)NCC(=O)OCc1ccccc1 (single isomer, unassigned) [Compound (1)] | 15 ± 6% | 85 ± 5 s | 80 ± 6 s | 140 ± 10 s | inactive | 15.2 ± 2.4 | 18.3 ± 3.1 | 5.9 ± 0.7 | 17.4 ± 2.7 | 21.5 ± 4.6 | 6.4 ± 0.8 | potentiates an increase in colic motricity | 5000 nM | – | – | – | –
CC(=O)SCC(Cc1ccccc1)C(=O)NCC(=O)OCc1ccccc1 (single isomer, unassigned) [Compound (2)] | 54 ± 6% | – | 75 ± 5 s | – | 33 ± 3% | – | – | – | – | – | – | – | 100 nM | 75±7% | 16.3 ± 2.5 | 20.1 ± 3.7 | 6.2 ± 0.9
